{
  "source": "patent US8333966B2",
  "about": "“CD37 immunotherapeutics and uses thereof” (Emergent Product Development Seattle, LLC, priority 2008, dated 2012)",
  "key": {"[1]": {"system": "DOHH2 human tumor xenografts", "conditions": "for Median Survival Time: CAS024 10 μg IV days 0, 4, 8, Bendamustine 10 mg/kg IP days 0, 2, 4, 7, 9, alone or combined; for clinical signs of toxicity: CAS024 10 μg IV, Bendamustine 10 mg/kg IP", "description": "Establishment of tumor xenografts and sorting into treatment groups. […] The tumor-bearing mice were sorted into five groups with equivalent mean tumor volumes (n=15 per group; 3 cages of 5 mice for each group).\nIn vivo treatment. Groups of mice were treated with an injection of 0.2 mL of PBS containing 10 μg huIgG (days 0, 4, 8 IV), 10 μg CAS024 (days 0, 4, 8 IV), 10 mg/kg Bendamustine (0, 2, 4, 7, 9 IP), or 10 μg CAS024 (days 0, 4, 8 IV) AND 10 mg/kg Bendamustine (0, 2, 4, 7, 9 IP).\nMonitoring and endpoints. Mice were monitored daily by visual inspection. […] Tumor volumes were calculated as described above."}, "CD37 on BJAB cells": {"molecular_target": "T1, CD37 on BJAB cells (Homo sapiens, UniProt P11049)", "T1 construct": "endogenous in cells; host or cells: BJAB cells", "T1 sequence (P11049 1-281)": "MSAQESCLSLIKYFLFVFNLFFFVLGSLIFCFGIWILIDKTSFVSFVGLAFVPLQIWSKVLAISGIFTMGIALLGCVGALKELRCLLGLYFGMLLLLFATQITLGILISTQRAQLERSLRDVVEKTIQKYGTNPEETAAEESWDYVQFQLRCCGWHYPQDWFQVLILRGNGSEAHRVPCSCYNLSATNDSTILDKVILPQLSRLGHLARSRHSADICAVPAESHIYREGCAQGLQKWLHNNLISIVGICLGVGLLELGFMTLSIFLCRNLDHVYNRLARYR", "assay": "Competitive binding / cross blocking of FITC-conjugated anti-CD37 reagents on BJAB cells", "conditions": "unlabeled blocking reagent", "description": "FITC labeled antibody conjugates were titrated from 10 ng/mL to 10 μg/mL in an initial binding study to determine the optimal amount to use in the blocking studies. The level chosen was just below saturating amounts, and was kept constant in the subsequent assays, while levels of blocking antibody were increased over a 10-fold range. Data were plotted as percent of maximal binding versus concentration of blocking antibody, so that higher levels indicate less efficient blocking, while lower levels indicate more efficient blocking activity.\nFor competitive binding assays, 2.5×10^5 BJAB cells were incubated in 96-well V-bottom plates in staining media (PBS with 2% mouse sera) with the FITC-conjugated anti-CD37 mAbs at 1.25 μg/mL in the presence of unconjugated anti-CD37 MAb at the indicated concentrations (2.5, 1.25, 0.6, or 0.3 μg/ml) or staining media for 45 minutes on ice in the dark. Blocking antibodies and FITC labeled antibody conjugates were added to reactions prior to addition of cells. The cells were then washed […] with PBS and fixed with 1% paraformaldehyde (USB, Cleveland, Ohio). The treated cells were analyzed by flow cytometry using a FACsCalibur instrument and CellQuest software (BD Biosciences, San Jose, Calif.). […]"}, "[2]": {"assay": "SMIP expression in transfected HEK293 cells, day 7 supernatants titered with Protein A sensor", "conditions": "supernatants day 7", "source_text": "CAS-024 and other CD37-specific binding SMIP molecules were produced by recombinant DNA technology and transfected into HEK293 cells for 7 days. Cell culture supernatants were harvested on day 7 and titered using Octec Q Protein A sensor."}, "[3]": {"assay": "SMIP expression in transfected CHO cells, supernatants titered with Protein A sensor", "set-up": "species or system Chinese Hamster Ovary (CHO)", "conditions": "shake flasks, culture supernatants", "description": "CAS-024 and other CD37-specific binding SMIP molecules were cloned into a Chinese Hamster Ovary (CHO) mammalian cell expression system. Transfected CHO cells that produced the SMIP molecules were cultured in shake flasks and harvested cell culture supernatants were titered using Octec Q Protein A sensor."}, "[4]": {"system": "human tumor (DOHH2) xenograft", "assay": "Single agent efficacy in established DOHH2 xenograft model in SCID mice", "type": "in vivo", "conditions": "for Death (other than for Tumor Size Sacrifice) / Median Survival Time: 200 μg IP days 0, 4, 8, cumulative 600 μg; for mean tumor volume compared with human IgG treated group: day 4 through day 11", "description": "Mice were monitored daily by visual inspection. […] Tumor volumes were calculated as described above. Tumor volumes on the last day that all mice were alive in each group were also expressed in terms of tumor volumes relative to day 0, using the formula: Relative tumor volume on day of interest=(volume on day of interest−volume on day 0)volume on day 0"}, "CD37 on Ramos cells": {"molecular_target": "T2, CD37 on Ramos cells (Homo sapiens, UniProt P11049)", "T2 construct": "endogenous in cells; host or cells: Ramos cells", "T2 sequence (P11049 1-281)": "T1 sequence (P11049 1-281)", "assay": "FMAT competition assay against FMAT Blue labeled CAS-006 for binding to Ramos cells", "source_text": "A competition assay was used to compare the binding affinity of different anti-CD37 specific small modular immunopharmaceutical (SMIP) molecules to CD-37 found on Ramos cells (a B-lymphoblastoid cell line derived from a Burkitt lymphoma). An SEC purified chimeric anti-CD37 SMIP molecule (CAS-006, SEQ ID NO:247) was labeled with the FMAT Blue® fluorescence dye (Applied Biosystems) and used as the standard to compete with purified unlabeled chimeric anti-CD37 SMIP molecule (positive control) and purified unlabeled humanized anti-CD37 SMIP test molecules. […] The plates were incubated at room temperature for 30 min and read on an 8200 Cellular Detection System (Applied Biosystems) gated for middle cell size and low signal.\nA competition assay as described in Example 4 was used to compare the binding affinity of different mouse-human hybrid anti-CD37 SMIP molecules compared to CAS-024 binding to Ramos cells. An SEC purified chimeric anti-CD37 SMIP molecule (CAS-006, SEQ ID NO:247) was labeled with the FMAT Blue® fluorescence dye (Applied Biosystems) and used as the standard to compete with purified unlabeled chimeric anti-CD37 SMIP molecule (CAS-006, positive control) and purified unlabeled humanized anti-CD37 SMIP test molecules—CAS-002 (SEQ ID NO:48), CAS-003 (SEQ ID NO:52), CAS-014 (SEQ ID NO:251), CAS-017 (SEQ ID NO:252), and CAS-024 (SEQ ID NO:253)."}, "[5]": {"system": "human tumor (DOHH2) xenograft", "assay": "Dose response in established subcutaneous DOHH2 xenograft model in SCID mice", "type": "in vivo", "description": "Mice were monitored daily by visual inspection. […] Tumor volumes were calculated as described above."}, "[6]": {"conditions": "3 μg IP days 0, 4, 8, cumulative 9 μg"}, "[7]": {"conditions": "10 μg IP days 0, 4, 8, cumulative 30 μg"}, "[8]": {"conditions": "30 μg IP days 0, 4, 8, cumulative 90 μg"}, "[9]": {"conditions": "100 μg IP days 0, 4, 8, cumulative 300 μg"}},
  "note": "“Also recorded” adds a separate entry of the source. Marks after values point to notes of the source that are not given here.",
  "data": [
    {"compound": "Cn1c(CCCC(=O)O)nc2cc(N(CCCl)CCCl)ccc21", "note": "[Bendamustine, 4-[5-[Bis(2-chloroethyl)amino]-1-methylbenzimidazol-2-yl]butanoic acid, reference compound]", "values": [
      {"measurement": "Median Survival Time", "setting": "[1]", "result": 17, "unit": "days"},
      {"measurement": "clinical signs of toxicity", "setting": "[1]", "result": "scruffy coats and diarrhea"}
    ]},
    {"compound": "CAS-006: chimeric anti-CD37 SMIP protein (mVLmVH) with variable regions from mouse mAb G28-1, SEQ ID NO:247", "values": [
      {"measurement": "blocking activity (inhibition of binding of FITC-conjugated anti-CD37)", "setting": "CD37 on BJAB cells", "result": "highest level of blocking activity"},
      {"measurement": "Protein Titer", "setting": "[2]", "result": 9.3, "unit": "µg/mL"}
    ]},
    {"compound": "G28-1 VH (M99F, Y102S)-VL (T25A) scFv (SSC-P) H WCH2 WCH3 [CAS-024]", "values": [
      {"measurement": "Protein Titer Range", "setting": "[3]", "result": "500 to 650", "unit": "µg/mL"},
      {"measurement": "Death (other than for Tumor Size Sacrifice)", "setting": "[4]", "result": "1/15^f"},
      {"measurement": "Median Survival Time", "setting": "[4]", "result": "Undefined^d, e"},
      {"measurement": "mean tumor volume compared with human IgG treated group", "setting": "[4]", "result": "significantly lower"},
      {"measurement": "greater affinity for CD37 than humanized VLVH SMIP molecules with 16 amino acid linker", "setting": "CD37 on Ramos cells; Ramos cells", "result": "≤ 4", "unit": "fold"},
      {"measurement": "affinity for CD37 compared with parent chimeric CAS-006", "setting": "CD37 on Ramos cells; competition with labeled CAS-006, Ramos cells", "result": "substantially the same affinity; also recorded: same binding affinity"},
      {"measurement": "Median Survival Time", "setting": "[1]", "result": "17^b Days"},
      {"measurement": "clinical signs of toxicity", "setting": "[1]", "result": "No clinical signs of toxicity"},
      {"measurement": "Death (Not Due to Large Tumor Volume)", "setting": "[5]; [6]", "result": "0/14"},
      {"measurement": "Median Survival Time", "setting": "[5]; [6]", "result": 19, "unit": "days"},
      {"measurement": "Death (Not Due to Large Tumor Volume)", "setting": "[5]; [7]", "result": "0/14"},
      {"measurement": "Median Survival Time", "setting": "[5]; [7]", "result": 28, "unit": "days"},
      {"measurement": "Death (Not Due to Large Tumor Volume)", "setting": "[5]; [8]", "result": "0/14"},
      {"measurement": "Median Survival Time", "setting": "[5]; [8]", "result": 35, "unit": "days"},
      {"measurement": "Death (Not Due to Large Tumor Volume)", "setting": "[5]; [9]", "result": "1/14^h"},
      {"measurement": "Median Survival Time", "setting": "[5]; [9]", "result": "Undefined"},
      {"measurement": "Death (Not Due to Large Tumor Volume)", "setting": "[5]; 200 μg IP days 0, 4, 8, cumulative 600 μg", "result": "0/14"},
      {"measurement": "effect on the growth of DOHH2 tumors", "setting": "[5]; 3 to 200 μg IP days 0, 4, 8", "result": "dose-dependent inhibitory effect"},
      {"measurement": "Protein Titer", "setting": "[2]", "result": 12.7, "unit": "µg/mL"}
    ]},
    {"compound": "Rituxan: anti-CD20 treatment used as single agent comparator [reference compound]", "values": [
      {"measurement": "Death (other than for Tumor Size Sacrifice)", "setting": "[4]", "result": "0/15"},
      {"measurement": "Median Survival Time", "setting": "[4]", "result": 43, "unit": "days"},
      {"measurement": "mean tumor volume compared with human IgG treated group", "setting": "[4]", "result": "significantly lower"}
    ]}
  ]
}
